Experimental data reported in patent US9981044B2, “Activation of adaptive immune processes for the treatment of cancers and infectious diseases” (Susavion Biosciences, Inc., priority 2014, dated 2018).
Where a SMILES comes first, the peptide text is derived from it. Bridges are numbered along the chain shown (N, C = ends). Roman numbers before positions name the chains, in order.

What was measured:
[1] = tested on: ovarian cancer cell line ID8; assay: Survival of mice implanted with ID8 cells; type: in vivo, C57Bl/6 mice
Method: Tumors were allowed to progress for 45 days before the animal were injected with svD2 every other day.
Female C57Bl/6 mice were implanted with ID8 cells. After allowing the cell to develop into tumors for 45 days, the animals received injections of svD2 every other day at a dose of 1 nmol/g body weight or 0.1 nmol/g body weight. Accumulation of ascites was monitored by weight of the animals as the result of expansion of the peritoneal cavity. […] Table 3 summarizes the survival data including a treatment with paclitaxel, which is a standard-of-care chemotherapeutic drug. The animals were given paclitaxel at a dose of 18 mg/kg body weight on days 45, 47 and 49 of the experiment.

[2] = tested on: Human peripheral blood mononuclear cells; assay: Cytokine release by human PBMCs (cytokine antibody array); type: cell-based; settings: 4-hour treatment, svD2 100 nM
Method: The polypeptide svD2, synthesized in Example 1 above, was evaluated in terms of a number of biological activities thought to correlate with its effectiveness against cancer.

human PBMC cultures = assay: Phagocytosis of opsonized microspheres in human PBMC cultures; type: cell-based; settings: for Beads/cell (mean ± SD): treated 20 h (50 nM svD2 or 100 ng/mL IFNγ), challenged 1 h with microspheres opsonized with rabbit antiserum, 15 cells
Method: Whether the peptide svD2 stimulates phagocytosis was studied in the human PBMC cultures. The cells were treated 20 h with vehicle (phosphate-buffered saline, PBS), 50 nM svD2 or 100 ng/mL IFNγ, and then challenged 1 h with microspheres. Cells were fixed with 2% formalin and washed with PBS. Beads in each cell were counted on microscope images, with 15 cells analyzed for each treatment.

peritoneal cells = assay: Response of peritoneal cells in mice (flow cytometry); type: in vivo; settings: C57BL/6 mice
Method: The number of cells is indicated as a ratio of the total number of each cell type normalized to the number of cells in untreated control samples.
To examine whether svD2 effectively stimulates the immune system in vivo, the peptide was injected subcutaneously on alternate days into Th1-poised C57BL/6 strain mice at a dose of 1 μmole/kg.

[3] = Solubility of the polypeptide; type: physicochemical
From the text: svD2 in lyophilized form is a white fluffy powder using trifluoroacetate (TFA) or acetate as a counterion. Net polypeptide content with and without the counter ion was approximately 88% and 73%, respectively. The remainder was likely water of hydration of the highly polar polypeptide. Solubility of the polypeptide in water is high. In the preparation of aqueous pharmaceutical compositions of the polypeptide with any of the pharmaceutically acceptable carriers described above, concentrations of the polypeptide in isotonic saline of 10 mM, and possibly somewhat higher, can be readily achieved. According to representative embodiments, therefore, the polypeptide is administered to a subject suffering from cancer in an aqueous pharmaceutical composition having a polypeptide concentration generally from about 0.1 mM to about 10 mM, typically from about 0.1 mM to about 5 mM, and a pharmaceutically acceptable carrier.

[4] = paclitaxel 18 mg/kg on days 45, 47 and 49
[5] = svD2 0.1 nmol/g every other day from day 45
[6] = svD2 1 nmol/g every other day from day 45

CC(=O)O[C@H]1C(=O)[C@@]2(C)[C@H]([C@H](OC(=O)c3ccccc3)[C@]3(O)C[C@H](OC(=O)[C@H](O)[C@@H](NC(=O)c4ccccc4)c4ccccc4)C(C)=C1C3(C)C)[C@]1(OC(C)=O)CO[C@@H]1C[C@@H]2O [Paclitaxel, paclitaxel, reference compound]
Mean survival [1, 4]: 81.5 days | Number of deaths [1, 4]: 10

CC(C)[C@H](N)C(=O)N[C@@H](CO)C(=O)N[C@@H](CC(N)=O)C(=O)N[C@@H](CCC(N)=O)C(=O)N[C@@H](Cc1c[nH]cn1)C(=O)NCC(=O)NCC(=O)NCC(=O)N[C@@H](CO)C(=O)NCCCC[C@H](NC(=O)[C@H](CO)NC(=O)CNC(=O)CNC(=O)CNC(=O)[C@H](Cc1c[nH]cn1)NC(=O)[C@H](CCC(N)=O)NC(=O)[C@H](CC(N)=O)NC(=O)[C@H](CO)NC(=O)[C@@H](N)C(C)C)C(=O)NCCCC[C@H](NC(=O)[C@H](CCCCNC(=O)[C@H](CO)NC(=O)CNC(=O)CNC(=O)CNC(=O)[C@H](Cc1c[nH]cn1)NC(=O)[C@H](CCC(N)=O)NC(=O)[C@H](CC(N)=O)NC(=O)[C@H](CO)NC(=O)[C@@H](N)C(C)C)NC(=O)[C@H](CO)NC(=O)CNC(=O)CNC(=O)CNC(=O)[C@H](Cc1c[nH]cn1)NC(=O)[C@H](CCC(N)=O)NC(=O)[C@H](CC(N)=O)NC(=O)[C@H](CO)NC(=O)[C@@H](N)C(C)C)C(N)=O [svD2, [(VSNQHGGGS)2K]2K-NH2] (I: H-VSNQHGGGSKK-NH2 / II: H-VSNQHGGGSK / III: H-VSNQHGGGS / IV: H-VSNQHGGGS; amide I:10-IV:C, I:11-II:C, II:10-III:C; N-terminus assumed)
Survival rate of mice implanted with ID8 cells ([1]; both doses, 1 nmol/g and 0.1 nmol/g body weight): improved the survival rate | Mean survival [1, 5]: 74.5 days | Number of deaths [1, 5]: 4 | Mean survival [1, 6]: 74 days | Number of deaths [1, 6]: 4 | Relative level of Eotaxin released [2]: 47 | Relative level of Eotaxin-2 released [2]: 470 | Relative level of GM-CSF released [2]: 96 | Relative level of ICAM-1 released [2]: 70 | Relative level of IFNγ released [2]: 170 | Relative level of IL-1a released [2]: 322 | Relative level of IL-12p70 released [2]: 117 | Relative level of IL-15 released [2]: 137 | Relative level of IL-17 released [2]: 21 | Relative level of IL-21 released [2]: 130 | Relative level of IP-10 released [2]: 377 | Relative level of MCP-2 released [2]: 97 | Relative level of MIG released [2]: 94 | Relative level of PDGF-BB released [2]: 82 | Relative level of TIMP-2 released [2]: 285 | Relative level of TNF-α released [2]: 138 | Relative level of TNF-β released [2]: 93 | Stimulation of phagocytic cells (human PBMC cultures; human PBMC cultures, 50 nM svD2, 20 h): does not significantly stimulate phagocytic cells | Beads/cell (mean ± SD) (human PBMC cultures): 1.3 ± 1.8 Beads/cell | Memory B cells in the peritoneal cavity (peritoneal cells; 1 nmole/g doses, flow cytometry 24 hours after each injection): increase in memory B cells | Mature immune cells in peritoneal cells (peritoneal cells; 1 μmole/kg subcutaneously on alternate days, 24 hours after the second injection): several-fold increases | Changes in mature cell populations (CD3, CD8, NK1.1, CD19, CD69) (peritoneal cells; 1 μmole/kg subcutaneously, 24 hours after the first injection): small | Toxicity in treated mice (Toxicity in vivo): No evidence of toxicity | solubility ([3]; isotonic saline, saline or isotonic, read-out: Achievable concentration in isotonic saline): ≥ 10 mM | Solubility in water ([3]; water): high

B1: IFNγ: cytokine used as comparator treatment, 100 ng/mL in phagocytosis test (protein, UniProt P01579 24-161, looked up)
Interferon gamma: QDPYVKEAENLKKYFNAGHSDVADNGTLFLGILKNWKEESDRKIMQSQIVSFYFKLFKNFKDDQSIQKSVETIKEDMNVKFFNSNKKKRDDFEKLTNYSVTDLNVQRKAIHELIQVMAELSPAAKTGKRKRSQMLFRG
Relative level of IL-21 released [2]: (IFNγ, 100) | Beads/cell (mean ± SD) (human PBMC cultures): 35.8 ± 12.6 Beads/cell
